Experimental data reported in US11155550B2, “Histone deacetylase inhibitors and methods of use thereof” (Reaction Biology Corp., priority 2018, dated 2021).

target: T1, Recombinant human HDAC6 (Homo sapiens, UniProt Q9UBN7); test: Biochemical HDAC enzymatic assay, HDAC6; conditions: Table 1; incubation time 10 min
T1 construct: full-length, MW=180 kDa; GST tag (N); made in house; host or cells: Sf9 insect cells (baculovirus)
T1 sequence (Q9UBN7 1-1215): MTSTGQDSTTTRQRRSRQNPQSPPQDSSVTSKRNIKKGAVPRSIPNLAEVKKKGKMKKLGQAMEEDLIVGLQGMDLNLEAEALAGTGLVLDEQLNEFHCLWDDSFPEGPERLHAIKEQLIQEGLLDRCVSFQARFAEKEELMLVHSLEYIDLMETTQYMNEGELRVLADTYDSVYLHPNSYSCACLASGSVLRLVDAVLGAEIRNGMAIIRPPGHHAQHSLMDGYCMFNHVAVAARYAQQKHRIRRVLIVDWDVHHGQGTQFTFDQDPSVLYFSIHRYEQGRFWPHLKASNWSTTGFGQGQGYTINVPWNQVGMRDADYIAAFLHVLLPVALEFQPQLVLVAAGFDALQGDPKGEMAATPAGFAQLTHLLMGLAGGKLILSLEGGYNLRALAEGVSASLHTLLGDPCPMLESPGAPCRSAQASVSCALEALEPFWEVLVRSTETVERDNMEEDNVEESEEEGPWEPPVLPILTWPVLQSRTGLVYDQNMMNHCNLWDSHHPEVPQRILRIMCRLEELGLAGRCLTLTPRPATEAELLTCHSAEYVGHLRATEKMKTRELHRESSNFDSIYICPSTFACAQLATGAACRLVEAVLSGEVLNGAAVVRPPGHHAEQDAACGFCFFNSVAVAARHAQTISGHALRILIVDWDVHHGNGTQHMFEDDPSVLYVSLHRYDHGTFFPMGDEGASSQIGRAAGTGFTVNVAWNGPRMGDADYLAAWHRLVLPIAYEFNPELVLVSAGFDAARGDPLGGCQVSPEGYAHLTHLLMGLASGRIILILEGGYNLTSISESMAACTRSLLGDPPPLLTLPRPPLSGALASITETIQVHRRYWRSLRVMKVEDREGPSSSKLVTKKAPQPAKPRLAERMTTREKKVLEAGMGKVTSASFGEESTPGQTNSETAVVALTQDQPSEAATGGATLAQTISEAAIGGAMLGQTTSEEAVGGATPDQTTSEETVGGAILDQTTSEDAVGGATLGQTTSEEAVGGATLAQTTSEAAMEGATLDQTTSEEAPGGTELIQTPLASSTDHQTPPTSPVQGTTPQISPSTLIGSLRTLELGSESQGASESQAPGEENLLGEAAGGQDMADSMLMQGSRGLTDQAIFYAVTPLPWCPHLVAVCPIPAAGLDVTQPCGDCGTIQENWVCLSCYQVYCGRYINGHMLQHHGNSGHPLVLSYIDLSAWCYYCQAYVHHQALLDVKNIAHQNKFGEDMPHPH
Protocol: Incubation time for HDAC1/2 is 120 min, and 10 min for other HDACs.
Recombinant human HDAC6 (GenBank Accession No. BC069243), full-length, MW=180 kDa, was expressed by baculovirus in Sf9 insect cells using an N-terminal GST tag.
(§1) • I. Compound handling: Testing compounds were dissolved in 100% DMSO to a specific concentration. The serial dilution was conducted by epMotion 5070 in DMSO. • II. HDAC reaction buffer: 50 mM Tris-HCl, pH8.0, 137 mM NaCl, 2.7 mM KCl, and 1 mM MgCl2, Added fresh: 1 mg/ml BSA, 1% DMSO. • III. Substrate: Fluorogenic HDAC General Substrate for HDAC1, 2, 3, 6, 10, 11 ans Sirt1, 2 and 3: Arg-His-Lys-Lys(Ac); HDAC8 only substrate: Arg-His-Lys(Ac)-Lys(Ac); Class2A Substrate (HDAC4, 5, 7 and 9): Acetyl-Lys(trifluoroacetyl)-AMC; Sirt5 substrate: Ac-Lys(succinyl)-AMC. • IV. General Reaction Procedure: (Standard IC50 determination) • a. Delivered 2× enzyme in wells of reaction plate except No Enzyme (No En) control wells. Add buffer in No En wells. • b. Delivered compounds in 100% DMSO into the enzyme mixture by Acoustic technology (Echo550; nanoliter range). Spin down and pre-incubation. • c. Delivered 2× Substrate Mixture (Fluorogenic HDAC Substrate and co-factor (500 μM of Nicotinamide adenine dinucleotide (NAD^+) in all Sirt assay) in all reaction wells to initiate the reaction. Spin and shake. • d. Incubated for 1-2 hr. at 30° C. with seal. • e. Added Developer with Trichostatin A (or TMP269 or NAD^+) to stop the reaction and to generate fluorescent color. • f. Fluorescence was read (excitatory, 360; emission, 460) using the EnVision Multilabel Plate Reader (Perkin Elmer) • g. Endpoint reading was taken for analysis after the development reaches plateau. • V. Data Analysis: The percentages of enzyme activity (relative to DMSO controls) and IC50 values were calculated using the GraphPad Prism 4 program based on a sigmoidal dose-response equation.
The inhibitory activities of HDAC of compounds of the invention were determined using biochemical HDAC assays. Compounds were tested at the indicated doses in the biochemical assays of HDAC1, HDAC2, HDAC3, HDAC4, HDAC5, HDAC6, HDAC7, HDAC8, HDAC9, HDAC10, or HDAC11 enzyme. The curve fit and IC50 values were calculated using the GraphPad Prism 4 program based on a sigmoidal dose-response equation.
as §1, with “[…]” for “μM”, “equation. […]” for “equation.”

**Q.** Which IC50 does the source give for `Nc1ccc(-c2ccc(F)cc2)cc1NC(=O)c1ccc(N2CC3(CCOCC3)OC2=O)nc1` [Example 5, N-(4-amino-4′-fluoro-[1,1′-biphenyl]-3-yl)-6-(2-oxo-1,8-dioxa-3-azaspiro[4.5]decan-3-yl)nicotinamide] here?
**A.** > 20000 nM

**Q.** How did the IC50 turn out when `Nc1cc(F)ccc1NC(=O)c1ccc(CN2C(=O)CCCC23CNC3)cc1` [Example 3, N-(2-amino-4-fluorophenyl)-4-((6-oxo-2,5-diazaspiro[3.5]nonan-5-yl)methyl)benzamide] was run?
**A.** > 10000 nM

**Q.** For `CN1CCC2(CC1)CN(c1ccc(C(=O)Nc3cc(-c4cccs4)ccc3N)cn1)C(=O)O2` [Example 4, N-(2-amino-5-(thiophen-2-yl)phenyl)-6-(8-methyl-2-oxo-1-oxa-3,8-diazaspiro[4.5]decan-3-yl)nicotinamide], which IC50 is on record?
**A.** > 20000 nM

**Q.** For `Nc1ccc(-c2cccs2)cc1NC(=O)c1ccc(CN2C(=O)CCC23CCNCC3)cc1` [Example 2, N-(2-amino-5-(thiophen-2-yl)phenyl)-4-((2-oxo-1,8-diazaspiro[4.5]decan-1-yl)methyl)benzamide], which IC50 is on record?
**A.** > 20000 nM

**Q.** How did the IC50 turn out when `Nc1ccc(-c2cccs2)cc1NC(=O)c1ccc(CN2C(=O)CCCC23CNC3)cc1` [Example 1, N-(2-amino-5-(thiophen-2-yl)phenyl)-4-((6-oxo-2,5-diazaspiro[3.5]nonan-5-yl)methyl)benzamide] was run?
**A.** > 20000 nM

**Q.** `Nc1ccc(-c2cccs2)cc1NC(=O)c1ccc(N2CC3(CCNCC3)CCC2=O)nc1` [Example 6, N-(2-amino-5-(thiophen-2-yl)phenyl)-6-(3-oxo-2,9-diazaspiro[5.5]undecan-2-yl)nicotinamide] was tested. Which IC50 did it give?
**A.** > 20000 nM

same assay, conditions: Table 2; incubation time 10 min

**Q.** `O=C(NO)c1ccc(CN2C(=O)c3ccccc3C23OCCO3)cc1` [Compound Example 8, N-hydroxy-4-((3-oxospiro[isoindoline-1,2′-[1,3]dioxolan]-2-yl)methyl)benzamide] was tested. Which IC50 did it give?
**A.** 29 nM

**Q.** Which IC50 does the source give for `CN(C)C(=O)N1CCC2(CC1)c1ccccc1C(=O)N2Cc1ccc(C(=O)NO)cc1` [Compound Example 11, 2-(4-(hydroxycarbamoyl)benzyl)-N,N-dimethyl-3-oxospiro[isoindoline-1,4′-piperidine]-1′-carboxamide] here?
**A.** 35 nM

**Q.** Which IC50 does the source give for `O=C(NO)c1ccc(CN2C(=O)C3(CCOC3)c3ccccc32)cc1` (centres unmarked) [Compound Example 9] here?
**A.** 4.5 nM

**Q.** `O=C(NO)c1ccc(CN2C(=O)c3ccccc3C23CCN(C2CC2)CC3)cc1` [Compound Example 12, 4-((1′-cyclopropyl-3-oxospiro[isoindoline-1,4′-piperidin]-2-yl)methyl)-N-hydroxybenzamide] was tested. Which IC50 did it give?
**A.** 26 nM

**Q.** For `O=C(NO)c1ccc(CN2C(=O)c3ccccc3C23CCNCC3)cc1` [Compound Example 10, N-hydroxy-4-((3-oxospiro[isoindoline-1,4′-piperidin]-2-yl)methyl)benzamide], which IC50 is on record?
**A.** 205 nM
